In article PMC7318308, “A Novel Synthetic Dual Agonistic Liposomal TLR4/7 Adjuvant Promotes Broad Immune Responses in an Influenza Vaccine With Minimal Reactogenicity” (Frontiers in Immunology, 2020):

Columns and labels:
[1] = system: HEK-Blue mTLR4 reporter cells; experiment: MTT cell viability, murine TLR4 reporter cells; assay type: cell-based; details: concentrations below 10 µM, MTT
Description: (§1) TLR4/NF-κB activation was assessed using HEK-Blue™ hTLR4 and HEK-Blue™ mTLR4 (InvivoGen). The cells were treated with 1Z105 and 2B182C (2-fold serial dilutions starting from 10 μM) for 20 h. NF-κB inducible secreted embryonic alkaline phosphatase (SEAP) protein in the culture supernatant was measured according to manufacturer's protocol. To evaluate cell viability, 0.5 mg/mL 3-[4,5-dimethylthiazol-2-yl]-2,5-dipheyl tetrazolium bromide (MTT, Thermo Fisher Scientific) solution was added to each well and incubated at 37°C. Six hours later, formazan crystals were lysed with lysis buffer (15% SDS and 0.12% 12 N HCl) and the absorbance was measured at 570 nm using 650 nm as a reference with a plate reader (Tecan, Switzerland).
Human TLR4 reporter cells Murine TLR4 reporter cells
[Compound] 1 μM 10 [Compound] 1 μM 10
Supplementary Figure 1. Dose response curves for cell viability (toxicity) of lead compounds in human and murine TLR4-NF-κB reporter cells. Cellular toxicity evaluated by MTT assay is presented as % viability normalized to vehicle (0.5% DMSO) as 100%. While 1Z105 had minimal toxicity in both hTLR4 and mTLR4 reporter cells (HEK-BlueTM hTLR4 and HEK-BlueTM mTLR4, […]
(also on this page, place not known: %Relative (Normalized 100%) 101101 viability vehicle as to)

[2] = system: TLR4-NF-κB reporter cells; experiment: MTT cell viability in TLR4-NF-κB reporter cells; assay type: cell-based; details: for toxicity in cell-based MTT assay (in words): viability at 5 μM in Figure 1C, normalized to vehicle
Description: (§2) Figure 1 Structure-activity relationship studies in TLR4 agonistic pyrimidoindoles. (A) Syntheses of C8-alkynyl and C8-alkyl analogs. (B) Syntheses of C8-aryl analogs. (C) Scatter plot of hTLR4 and mTLR4 agonistic activity in TLR4-NF-κB HEK reporter cells (HEK-Blue™ hTLR4 and HEK-Blue™ mTLR4, respectively). NF-κB inducible NF-κB SEAP levels in culture supernatants were measured according to manufacturer's protocol. The TLR4 agonistic potency was evaluated as area under the curve (AUC) calculated for dose response curve using 2-fold serial dilutions from 10 μM, and normalized to the AUC for 2B110 as 100% on both axes. […] The color of each point is based on cell viability in TLR4-NF-κB reporter cells for compounds evaluated at 5 μM concentration. Viability data was normalized to vehicle control (Vehicle OD570−650 = 0.58 ± 0.01). (D) Structures of the lead compounds with differences at C8 substitution highlighted in blue.
as §1

mouse TLR4 = molecular target: T1, mouse TLR4 (Mus musculus, UniProt Q9JHF9+Q9QUK6); experiment: TLR4/NF-κB reporter cell assay (SEAP), HEK-Blue mTLR4; assay type: cell-based; details: for murine TLR4 agonistic activity (in words): AUC normalized to 2B110 as 100%, Figure 1C
T1 construct: host or cells: HEK-Blue mTLR4 (HEK293-derived NF-κB/SEAP reporter cells)
T1 sequence (Q9QUK6 26-835): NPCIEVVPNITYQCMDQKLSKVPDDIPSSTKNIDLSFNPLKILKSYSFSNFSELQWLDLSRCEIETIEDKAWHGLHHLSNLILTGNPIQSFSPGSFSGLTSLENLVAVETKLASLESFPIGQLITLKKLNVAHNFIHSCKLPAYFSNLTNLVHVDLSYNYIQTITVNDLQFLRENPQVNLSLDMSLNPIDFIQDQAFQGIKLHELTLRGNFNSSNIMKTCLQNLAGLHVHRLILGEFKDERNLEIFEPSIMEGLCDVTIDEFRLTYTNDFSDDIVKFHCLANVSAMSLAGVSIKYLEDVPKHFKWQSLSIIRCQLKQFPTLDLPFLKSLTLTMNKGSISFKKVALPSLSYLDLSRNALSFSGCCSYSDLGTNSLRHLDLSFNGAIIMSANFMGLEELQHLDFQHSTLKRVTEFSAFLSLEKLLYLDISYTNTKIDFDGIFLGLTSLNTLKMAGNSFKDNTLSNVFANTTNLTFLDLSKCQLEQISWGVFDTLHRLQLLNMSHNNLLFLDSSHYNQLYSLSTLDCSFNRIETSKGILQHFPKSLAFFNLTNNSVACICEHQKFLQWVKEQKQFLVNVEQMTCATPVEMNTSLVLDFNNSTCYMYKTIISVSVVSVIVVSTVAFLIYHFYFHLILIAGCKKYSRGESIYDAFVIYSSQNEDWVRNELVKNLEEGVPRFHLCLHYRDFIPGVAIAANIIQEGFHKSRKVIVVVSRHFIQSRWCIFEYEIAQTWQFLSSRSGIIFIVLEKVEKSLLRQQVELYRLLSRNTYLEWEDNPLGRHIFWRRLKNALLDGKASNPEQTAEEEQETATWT
T1 sequence (Q9JHF9 19-160): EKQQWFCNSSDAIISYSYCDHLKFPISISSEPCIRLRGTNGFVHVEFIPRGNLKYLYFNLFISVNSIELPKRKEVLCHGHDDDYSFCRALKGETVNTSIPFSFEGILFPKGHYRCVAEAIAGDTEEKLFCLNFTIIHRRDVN
Description: as §2
(§3) Titration curves of 1Z105 and derivatives were used to assess their potency in stimulating human and mouse TLR4 response using HEK NF-κB reporter cells (HEK-Blue™ hTLR4 and mTLR4, respectively). The areas under the curve for dose response curves relative to vehicle (0.5% DMSO) were normalized to the greatest activity as 100% of 2B110 for both assays (Figure 1C). The compounds were also tested for in vitro toxicity by MTT assay (Figure 1C, Supplementary Figure 1).
as §1

human TLR4 = molecular target: T2, human TLR4 (Homo sapiens, UniProt O00206+Q9Y6Y9); experiment: TLR4/NF-κB reporter cell assay (SEAP), HEK-Blue hTLR4; assay type: cell-based; details: for human TLR4 agonistic activity (in words): AUC normalized to 2B110 as 100%, Figure 1C
T2 construct: host or cells: HEK-Blue hTLR4 (HEK293-derived NF-κB/SEAP reporter cells)
Description: as §2, §3, §1

TLR4 = TLR4 activity in HEK NF-κB reporter cells, species not told apart in the text; assay type: cell-based, human and mouse; details: HEK-Blue hTLR4 and mTLR4, Figure 1C
Description: as §2, §3, §1

[3] = 2-fold serial dilutions from 10 μM, the value taken as 100% for normalisation

T2 sequence (O00206 24-839): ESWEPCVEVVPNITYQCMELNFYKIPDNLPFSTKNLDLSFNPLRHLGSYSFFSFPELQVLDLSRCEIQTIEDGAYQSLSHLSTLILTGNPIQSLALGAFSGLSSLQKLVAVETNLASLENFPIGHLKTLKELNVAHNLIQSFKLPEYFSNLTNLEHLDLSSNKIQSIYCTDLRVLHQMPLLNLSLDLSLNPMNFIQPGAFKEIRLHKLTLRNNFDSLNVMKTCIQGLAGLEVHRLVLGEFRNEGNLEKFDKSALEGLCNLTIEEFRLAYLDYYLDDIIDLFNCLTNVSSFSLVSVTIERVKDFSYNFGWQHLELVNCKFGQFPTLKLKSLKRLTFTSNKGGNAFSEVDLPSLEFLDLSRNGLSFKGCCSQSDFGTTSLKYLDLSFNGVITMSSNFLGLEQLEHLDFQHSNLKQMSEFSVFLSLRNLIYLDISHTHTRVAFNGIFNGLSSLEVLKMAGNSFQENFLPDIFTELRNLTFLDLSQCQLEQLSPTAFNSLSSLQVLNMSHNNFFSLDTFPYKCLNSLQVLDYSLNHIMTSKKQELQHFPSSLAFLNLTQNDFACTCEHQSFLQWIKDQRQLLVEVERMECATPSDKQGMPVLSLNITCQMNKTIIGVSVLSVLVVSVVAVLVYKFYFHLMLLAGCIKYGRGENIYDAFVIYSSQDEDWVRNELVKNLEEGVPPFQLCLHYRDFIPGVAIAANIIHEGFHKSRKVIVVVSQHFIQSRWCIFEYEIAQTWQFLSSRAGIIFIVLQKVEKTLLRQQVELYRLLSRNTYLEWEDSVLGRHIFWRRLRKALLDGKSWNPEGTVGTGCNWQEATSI
T2 sequence (Q9Y6Y9 17-160 limits assumed): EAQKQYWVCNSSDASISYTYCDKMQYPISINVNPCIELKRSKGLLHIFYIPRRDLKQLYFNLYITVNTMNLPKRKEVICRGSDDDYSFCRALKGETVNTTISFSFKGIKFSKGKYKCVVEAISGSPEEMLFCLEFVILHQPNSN

| SMILES | murine TLR4 agonistic activity (in words) (mouse TLR4) | human TLR4 agonistic activity (in words) (human TLR4) | TLR4 activity (species not told apart) (TLR4) | further results |
| --- | --- | --- | --- | --- |
| Cn1c2ccc(-c3ccccc3)cc2c2nc(SCC(=O)NC3CCCCC3)n(-c3ccccc3)c(=O)c21 [2B110] | high TLR4 stimulatory potency | high TLR4 stimulatory potency |  | toxicity at lower concentrations, mTLR4 reporter cells (in words) [1]: more toxic compared to 8s; toxicity at 10 µM (in words) ([2]; 10 µM, MTT, Supplementary Figure 1): exhibited toxicity; toxicity in cell-based MTT assay (in words) [2]: slightly higher toxicity in MTT assays than did 2B182C; AUC of dose response curve, mTLR4 reporter cells (mouse TLR4; [3]): 28.43 ± 5.49 units; AUC of dose response curve, hTLR4 reporter cells (human TLR4; [3]): 14.95 ± 1.95 |
| C#Cc1ccc2c(c1)c1nc(SCC(=O)NC3CCCCC3)n(-c3ccccc3)c(=O)c1n2C [6a] |  |  | reduction in TLR4 activity |  |
| CCCC#Cc1ccc2c(c1)c1nc(SCC(=O)NC3CCCCC3)n(-c3ccccc3)c(=O)c1n2C [6b] |  |  | highest level of TLR4 activation |  |
| CCCCCC#Cc1ccc2c(c1)c1nc(SCC(=O)NC3CCCCC3)n(-c3ccccc3)c(=O)c1n2C [6c] |  |  | reduction in TLR4 activity |  |
| CCCCCCCCCCC#Cc1ccc2c(c1)c1nc(SCC(=O)NC3CCCCC3)n(-c3ccccc3)c(=O)c1n2C [6d] |  |  | completely inactive |  |
| CCc1ccc(-c2ccc3c(c2)c2nc(SCC(=O)NC4CCCCC4)n(-c4ccccc4)c(=O)c2n3C)cc1 [8d] |  |  | maintaining TLR4 activity | toxicity in cell-based MTT assay (in words) [2]: relatively high toxicity |
| CCCCc1ccc(-c2ccc3c(c2)c2nc(SCC(=O)NC4CCCCC4)n(-c4ccccc4)c(=O)c2n3C)cc1 [8e] |  |  | maintaining TLR4 activity | toxicity in cell-based MTT assay (in words) [2]: relatively high toxicity |
| Cn1c2ccc(-c3cccc(-c4ccccc4)c3)cc2c2nc(SCC(=O)NC3CCCCC3)n(-c3ccccc3)c(=O)c21 [8f] |  | dramatic loss of human TLR4 activity |  |  |
| COc1cccc(-c2ccc3c(c2)c2nc(SCC(=O)NC4CCCCC4)n(-c4ccccc4)c(=O)c2n3C)c1 [8h] |  | dramatic loss of human TLR4 activity |  |  |
| Cn1c2ccc(-c3cccc(N)c3)cc2c2nc(SCC(=O)NC3CCCCC3)n(-c3ccccc3)c(=O)c21 [8k] | significant loss | significant loss |  |  |
| Cn1c2ccc(-c3cccc(C(=O)O)c3)cc2c2nc(SCC(=O)NC3CCCCC3)n(-c3ccccc3)c(=O)c21 [8l] | significant loss | significant loss |  |  |
| Cn1c2ccc(-c3cccc(O)c3)cc2c2nc(SCC(=O)NC3CCCCC3)n(-c3ccccc3)c(=O)c21 [8m] | significant loss | significant loss |  |  |
| Cn1c2ccc(-c3cccc(C#N)c3)cc2c2nc(SCC(=O)NC3CCCCC3)n(-c3ccccc3)c(=O)c21 [8n] | retained murine TLR4 activity | less potent than 2B110 |  |  |
| Cn1c2ccc(-c3cccc([N+](=O)[O-])c3)cc2c2nc(SCC(=O)NC3CCCCC3)n(-c3ccccc3)c(=O)c21 [8o] | retained murine TLR4 activity | less potent than 2B110 |  |  |
